Like-named read-outs stand apart in the source and are kept apart here.

As usually defined, the pKa is the pH at which an ionisable group is half protonated.

For one data set, the system named is CHO-K1 cells. Put plainly: Cytotoxicity, CCK-8 cell counting kit. The format is cell-based, Chinese hamster. The following applies: 1% Triton; positive control. As to the method:
Cytotoxicity: CHO-K1 cells (20,000 per well) were seeded in 96 multiple well plates for 24 h before the experiment. Cells (40,000 per well) were incubated with the fluorescent compounds in 100 µL DMEM for 2h at 37°C. The incubation medium was replaced by 100µL fresh DMEM containing 10% of cell-counting solution (Dojindo Laboratories) and further incubated for 2h at 37°C. The absorbance was measured at 450 nm (reference at 620 nm) and was directly related to the number of living cells. Experiments were done in triplicate and repeated twice.
To determine cytotoxicity a CCK-8 cell counting kit was used. This can be bought commercially and relies upon the reduction of a highly water-soluble tetrazolium salt (WST-8). This compound is slightly yellow in color, however, upon reduction to its corresponding formazan species it becomes bright orange. The optical density of the absorbance corresponding to the orange formazan species, detected at 450nm, can be measured and correlated to the number of living cells. A decrease in optical density corresponds directly to a decrease in the quantity of formazan molecules indicating fewer living cells due to cell death/cytotoxicity. The reduction of WST-8 is achieved by exploiting the redox reactions of NAD+, a coenzyme found in all living cells. Cellular NAD+ is constantly being reduced to NADH by dehydrogenases as a natural part of a cell's metabolism. […]
(Tetrazolium assays rely on reduction of a dye to a coloured formazan, in cell work by metabolically active cells.)

A short description of data set [1]: Absorption spectra and molar extinction coefficient (Beer Lambert law). The format is physicochemical. The following applies: for λabs: maximum absorption wavelength. Here is the method: (§1) All the solvents were of analytical grade. Chemicals were purchased from commercial sources. The salts used in stock solutions of metal ions were CaCl2·2H2O, CuCl2·2H2O, FeCl3·6H2O, MgCl2·6H2O, MnCl2·4H2O, ZnBr2. ^1H-NMR and ^13C-NMR were measured on a Bruker avance III-300 MHz spectrometer with chemical shifts reported in ppm (TMS as internal standard). Mass spectra were measured on a Focus GC / DSQ II spectrometer (ThermoScientific) for IC and an API 3000 spectrometer (Applied Biosystems, PE Sciex) for ES. All pH measurements were made with a Mettler Toledo pH-Meter. Fluorescence spectra were recorded on a JASCO FP-8300 spectrofluorometer. Absorption spectra were determined on a VARIAN CARY 300 Bio UV-Visible spectrophotometer. All measurements were done at a set temperature of 25°C. The purity of the dyes were checked by RP-HPLC C-18, eluant: ACN 0.1% TFA/Water 0.1 % TFA, method: 20/80 to 100/0 within 20 min. then 100/0 for 10 min. detection at λabs= 254 nm.
Molar extinction coefficient calculations. Extinction coefficients (ε) were calculated using the Beer Lambert law (equation 3) plotting optical density/absorption versus concentration for the pH probes. The gradient of the plot is equal to ε. A = εc1 [formula] • A = optical density/absorption • ε = extinction coefficient = gradient of the plot • c = concentration • 1= optical path length (1 cm)
The dependence of absorption on pH for probe I-1 was determined in a MOPS buffered aqueous solution. Results are represented in figure 2.

Data set [2] is described as follows: Fluorescence spectra, quantum yield and dynamic range. The format is physicochemical. The following applies: for λem: excitation at 535 nm, maximum emission wavelength; for Φ: MOPS 30 mM, KCl 100 mM, reference Rhodamine 101, excitation 535 nm; for Dynamic Range: maximal value of (I-Imin)/Imin; for ΦON/ ΦOFF: ratio of quantum yields at pH 4 and pH 10. Here is the method:
as §1
Dynamic range. The term dynamic range refers to the maximal value of equation 1 where I is the observed fluorescence intensity and Imin is the minimum fluorescence intensity observed for that probe. The larger the dynamic range the better as it indicates good differentiation between "on" and "off' states. Dynamic Range = ((I-Imin))/(Imin) [formula]
Quantum yield calculations. The fluorescence quantum yields (Φ) were calculated from the gradient of integrated fluorescence intensity (545 to 700 nm) versus optical density. Rhodamine 101 (Φ = 1.0 in absolute ethanol) was used as a reference standard (ref) with the excitation wavelength at 535 nm. Equation 2 was used to determine the Φ values. Φ = Φref (grad.)/(grad.ref).(η^2)/(ηref^2) [formula] • Φ = quantum yield • η = refractive index of the solvent system (η (H2O) = 1.33, ηref (EtOH) = 1.36) grad. = gradient of the curve
ΦON (pH = 4) and ΦOFF (pH = 10) were calculated for each pH probe in MOPS 30 mM, KCl 100 mM.
The dependence of fluorescence intensity on pH for probe I-1 was determined in a MOPS buffered aqueous solution after excitation at 535 nm. Results are represented in figure 3.

In the next data set the test system is F98 cells. Put plainly: Dose response by flow cytometry (probe internalization). The format is cell-based, rat. Particulars: F98 cells incubated for two hours. Here is the method:
Cell calture for flow cytometry, dose response and cellular imaging: F98 and CHO-K1 cell lines (purchased from ATCC) were maintained at 37°C in 5% CO2 in DMEM/F-12 nutrient medium (Invitrogen, Cergy Pontoise, France) supplemented with 2% (v/v) heat-inactivated fetal bovine serum (Invitrogen) and 100 µg/mL streptomycine and 100 units/mL penicillin (Invitrogen).
Fluorescence Activated Cell Sorting Analyses: F98 cells were incubated with various concentrations of pH probes in DMEM/F-12 culture medium without serum at 37 °C for 2h. The cells were washed with PBS to remove excess fluorescent probe and were treated with 0.05% Trypsin-EDTA for 2 min at 37°C to detach the cells from the surface, and centrifuged at 200 g in DMEM/F-12 culture medium before suspension in PBS. Flow cytometry analyses were performed with live cells using an Accuri C6 flow cytometer (BD Biosciences, Le Pont de Claix, France). The data was obtained and analysed using CFlow Sampler (BD Biosciences). Live cells were gated by forward/side scattering for a total of 10,000 events.
Undifferentiated malignant glioma rat cells (F98) were incubated with probe I-1 for two hours at increasing concentrations and the fluorescence intensity measured. Results are represented in figure 7.
(Flow cytometry measures light scatter and fluorescence of single cells or particles in a stream.)

The nature of data set [3]: pKa calculation from fluorescence intensity versus pH (Hill equation fit). Particulars: fluorescence intensity at λem,max versus pH, 25°C. The format is physicochemical. Here is the method: pKa calculations. pKa values were calculated by plotting the fluorescence intensity at λem.,max versus the pH. The data was fit to the Hill Equation (equation 4) and the pKa taken as x1/2 as per the Hill equation. base + ((max-base))/(1 + (((x1/2)/(x)))^rate) [formula] • base = y value at minimum x-value • max = y value at maximum x-value • rate = rise rate of the curve • x1/2 = x value at which y = (base + max)/2.
The dependence of fluorescence enhancement on pH was determined for probes I-1, I-3 and I-4. Results are represented in figure 4A, 4B, and 4C respectively. Curve fitting was based on a modified Hill equation from which pKa values were calculated.

For data set [4] the following is noted: in absolute ethanol; reference standard; cited from earlier work.
A short description of data set [5]: Optical properties of the second (blue) fluorophore. The following applies: measured in CH3CN/H2O. The format is physicochemical. The text has this: In addition to having the correct absorption and emission wavelengths, the chosen second fluorophore must feature a terminal alkyne to make it "clickable" with the azide-containing pH probe I-1. The acridone 5 was selected, having the following optical properties (measured in CH3CN/H2O): […]

Data set [6] can be described thus: Fluorescence of the ratiometric dual-fluorophore probe as a function of pH. The format is physicochemical. From the text: • Figure 1 is a drawing schematically representing the red-emitting pH probe of the invention. • Figure 2 is a graph representing the dependence of absorption on pH in a MOPS buffered aqueous solution for compound I-1. • Figure 3 is a graph representing the dependence of fluorescence intensity on pH in a MOPS buffered aqueous solution after excitation at 535 nm, for compound I-1. • Figure 4A-4C are graphs representing the dependence of fluorescence enhancement on pH for compounds I-1 (4A), I-3 (4B) and I-4 (4C). • Figure 5 is a graph representing fluorescence intensities of compound I-1 (5 µM) in presence of a range of metal ions in a MOPS buffer (MOPS 30 mM, KCl 100 mM, pH 7.2). The concentration of cations is 10^-3 M. • Figure 6 is a graph representing CCK-8 test results for compound I-1 indicating cytotoxicity. The probe was incubated with Chinese hamster ovary cells (CHO-K1) for 2 hours at 37°C. • Figure 7 is a dose response diagram for F98 cells incubated with pH probe I-1. • Figure 8 is a graph representing the fluorescence spectrum for the dual-fluorophore I-5 (5 µM) measured in an aqueous MOPS buffered solution/MeOH, 91/9. • Figure 9 is a plot of I∼612/I439 versus pH at excitation wavelength 405 nm for compound I-5. I∼612 and I439 are the respective fluorescence intensities of the system at ∼612nm corresponding to the X-rhodamine red-emission and at 439nm corresponding to the acridone blue-emission.
The peak centred at 439 nm corresponding to emission from the acridone fluorophore and the peak centred at 612 nm to that of the X-rhodamine. The blue acridone emission is not dependent on pH while the red X-rhodamine emission is dependent on pH.
In order to visualize the intensity ratio between the two emission signals a plot of I∼612/I439 versus pH was plotted (figure 9). I∼612 and I439 are the respective fluorescence intensities of the system at ∼612 nm corresponding to the X-rhodamine red-emission and at 439 nm corresponding to the acridone blue-emission.

[7] abbreviates: 5 µM, aqueous MOPS buffered solution/MeOH, 91/9.

Consider Triton, for which the cell death result in the data set with CHO-K1 cells was “total cell death”.
Turning to `[N-]=[N+]=NCCCNC(=O)c1cc(C2=c3cc4c5c(c3Oc3c2cc2c6c3CCCN6CCC2)CCC[N+]=5CCC4)ccc1O` [Compound I-1], the ε in data set [1] (OFF, deprotonated form: pH 10) worked out at 26706 M⁻¹ cm⁻¹; in data set [1] (ON, protonated form: pH 4), 26742 M⁻¹ cm⁻¹. The λabs in data set [1] (OFF, deprotonated form: pH 10) amounted to 574 nm; in data set [1] (ON, protonated form: pH 4), 580 nm. Also, the absorbs light at in data set [1] (red region of the spectrum) is given as 580 nm. For the same compound, the λem in data set [2] (OFF, deprotonated form: pH 10) turned out to be 596 nm; in data set [2] (ON, protonated form: pH 4), 600 nm. Besides, the Φ turned out to be 0.009 in data set [2] (OFF, pH 10) and 0.254 in data set [2] (ON, pH 4). Besides, the “Dynamic Range” value in data set [2] turned out to be 88. Also, the “ΦON/ ΦOFF” value in data set [2] turned out to be 28. The “fluorescence intensity of cells at increasing concentrations of probe” value with F98 cells is “increase of fluorescence with increasing concentration of probe”. In addition, in data set [3], the pKa was 3.96.
For the compound `C#CCN1CCN(C(=O)c2cc(C3=c4cc5c6c(c4Oc4c3cc3c7c4CCCN7CCC3)CCC[N+]=6CCC5)ccc2O)CC1` [Compound I-4], the ε in data set [1] (OFF, deprotonated form: pH 10) came out at 20712 M⁻¹ cm⁻¹; in data set [1] (ON, protonated form: pH 4), 35109 M⁻¹ cm⁻¹. Further, the λabs in data set [1] (OFF, deprotonated form: pH 10) worked out at 574 nm; in data set [1] (ON, protonated form: pH 4), 580 nm. Also, the λem worked out at 600 nm in data set [2] (OFF, deprotonated form: pH 10) and 601 nm in data set [2] (ON, protonated form: pH 4). Further, the Φ in data set [2] (OFF, pH 10) is 0.023; in data set [2] (ON, pH 4), 0.798. Further, in data set [2], the “Dynamic Range” value is on record as 98. Moreover, the “ΦON/ ΦOFF” value in data set [2] was 35. Further, the pKa in data set [3] was 7.64.
On to `O=C(O)c1ccccc1C1=c2cc3c4c(c2Oc2c1cc1c5c2CCCN5CCC1)CCC[N+]=4CCC3.[Cl-]` [Rhodamine 101], for which the Φ in data set [4] is given as 1.0.
As for `C#CCCCn1c2ccccc2c(=O)c2ccccc21`, in data set [5], the λabs came out at 408 nm and the λem was determined as 425 nm. Besides, the FWHM in data set [5] (full width at half maximum) turned out to be 49.
Take `O=C(NCCCn1cc(CCCn2c3ccccc3c(=O)c3ccccc32)nn1)c1cc(C2=c3cc4c5c(c3Oc3c2cc2c6c3CCCN6CCC2)CCC[N+]=5CCC4)ccc1O` [Compound I-5]: in data set [6] (setting [7]), the “emission peak of the X-rhodamine” value was 612 nm and the “emission peak of the acridone fluorophore” value came out at 439 nm. Besides, the “I∼612/I439 ratio” value in data set [6] (excitation wavelength 405 nm, as the system was acidified) is recorded as “four-fold increase”.
As for `C#CCOC(=O)N1CCN(C(=O)c2cc(C3=c4cc5c6c(c4Oc4c3cc3c7c4CCCN7CCC3)CCC[N+]=6CCC5)ccc2O)CC1` [Compound I-3], the ε in data set [1] (OFF, deprotonated form: pH 10) is 49298 M⁻¹ cm⁻¹; in data set [1] (ON, protonated form: pH 4) it was 72405 M⁻¹ cm⁻¹. Also, the λabs is 575 nm in data set [1] (OFF, deprotonated form: pH 10) and 580 nm in data set [1] (ON, protonated form: pH 4). For the same compound, the λem amounted to 602 nm in data set [2] (OFF, deprotonated form: pH 10) and 601 nm in data set [2] (ON, protonated form: pH 4). The Φ is 0.016 in data set [2] (OFF, pH 10) and 0.640 in data set [2] (ON, pH 4). Also, in data set [2], the “Dynamic Range” value was 86. Moreover, the “ΦON/ ΦOFF” value in data set [2] stood at 40. In data set [3], the pKa is 7.68.

The values above are taken from EP2889299A1, “Fluorescent red emitting functionalizable pH probes” (Paris Sciences et Lettres - Quartier Latin, priority 2013, dated 2015).
